Results taken from patent US20260224521A1, “BIOMOLECULE FOR TREATMENT OF CORNEAL PATHOLOGIES” (Board of Supervisors of Louisiana State University and …, priority 2019, published 2026).
Entries after “also recorded” stand apart in the source; their conditions may differ.

Experiments:
corneal nerves = test: Corneal nerve analysis (PGP9.5 and SP whole-mount nerve density); assay type: in vivo, mouse
From the text: PEDF+DHA stimulates corneal nerve regeneration in injury animal models (20-25). It was important to confirm the biological activity of RvD6si as a lipid mediator underlying the action of PEDF+DHA. To validate this, mice were injured and treated (as described in FIG. 4). Isolated corneas were stained with PGP 9.5, a pan-neuronal marker, and with SP neuropeptide antibodies. The density of non-injured corneal nerves positive to PGP 9.5 and SP, respectively, was used to normalize the values (FIG. 5). Substance P is a main neuropeptide in mammalian corneas (26-28).
(§1) Mice were anesthetized with a mix of ketamine (200 mg/kg) and xylazine (10 mg/kg) injected intraperitoneally, and one drop of proparacaine hydrochloride solution (0.5%) was applied to the right eye subjected to injury. As previously described (19, 29), the center of the cornea was demarcated with a 2 mm trephine, and the epithelium and the anterior stroma were gently removed under a surgical microscope using a corneal rust ring remover (Algerbrush II; Alger Equipment Co., Lago Vista, TX, USA). One drop of 0.3% of tobramycin ophthalmic solution (Henry Schein, Melville, NY, USA) was applied to the eye to prevent postoperative infection. The same investigator (J.H.) performed all surgeries. Afterward, 10 μl of PEDF (50 ng/ml) plus DHA (50 nM) or DHA-derived lipid mediators were applied topically, as explained in each experimental design.
Twelve days after injury and treatment, mice were euthanized, and the eyes enucleated and fixed with Zamboni's fixative (American Master Tech Scientific, Lodi, CA, USA) for 45 min at room temperature. The corneas were then excised and fixed for an additional 15 min, followed by 3 washes with PBS. To block nonspecific binding, corneas were incubated with 10% normal goat serum plus 0.5% Triton X-100 in PBS for 1 h at room temperature. Afterward, corneas were incubated with the primary antibodies, rabbit monoclonal anti-PGP9.5 (1:500), (ab108986; Abcam, Cambridge, MA, USA), and rat monoclonal anti-substance-P (SP; 1:100) (sc-21715; Santa Cruz Biotechnology, Dallas, TX, USA) for 24 h at room temperature with constant shaking. After being washed with PBS, the corneas were incubated with the corresponding secondary antibodies goat anti-rabbit Alexa-Fluor 488 (1:1000) and goat anti-rat Alexa-Fluor 488 (1:1000) (Thermo Fisher Scientific, Waltham, MA, USA) for 24 h at 4° C. Four radial cuts were performed on each cornea that was flatly mounted on a slide with the endothelium side up and examined with a fluorescent microscope (Deconvolution microscope DP80; Olympus, Tokyo, Japan). The images were merged together to build the entire view of the corneal nerve network. The corneal nerve density was measured using Photoshop CC 2014 (Adobe) as previously described (26, 29).

mouse cornea [1] = test: Corneal sensitivity measurement (Belmonte non-contact aesthesiometer); assay type: in vivo; details: for recovery of corneal sensitivity: compared to PEDF+DHA (and RvD6) treatment; for corneal sensitivity: vs vehicle
Procedure: Corneal sensitivity was evaluated at days 3, 6, 9 and 12 after corneal injury and treatment (FIG. 4). A new methodology to measure the sensation in mouse cornea was introduced using the Belmonte non-contact aesthesiometer. […] It is important to note that this range of normal corneal sensitivity is critical to evaluate corneal sensation since the Belmonte non-contact aesthesiometer working flow rate is from 20 to 200 ml/min. The range of normal corneal sensitivity from […] in the mouse was regarded as successful recovery after injury and treatment, and it was used to normalize the measurements.
as §1
The non-contact corneal aesthesiometer has been described as a more reliable method than the standard Cochet-Bonnet aesthesiometer to determine the corneal sensation threshold (54). Therefore, for corneal sensation measurement, the Belmonte non-contact corneal aesthesiometer (55) was used with some modification. Briefly, one researcher held the mouse and kept the air output needle at a distance of 3 mm from the cornea. Another researcher controlled the air flow rate. The measurements started at an air flow rate of 80 ml per minute and then increased gradually by ten units until the mouse started blinking. When the mouse blinked, the air flow rate was recorded as the final corneal sensitivity index.

mouse cornea [2] = test: Corneal wound healing 20 h after injury (methylene blue stained wounded area); assay type: in vivo; details: for corneal wound healing: compared to PEDF+DHA (and RvD6) treatment
Procedure: Studies have shown that PEDF+DHA promotes corneal wound healing in rabbit (20, 21), and in normal and diabetic mice (24, 25) after experimental surgery. We validated the ability of RvD6s (either RvD6 or RvD6si) in stimulating corneal wound healing. The right mouse eyes were injured, and the animals were divided into four groups: vehicle, PEDF+DHA, RvD6, and RvD6si (FIG. 4).
as §1
Mice were euthanized 20 h after injury and treatment, and corneas were stained with 0.5% methylene blue for 20 sec and then washed with PBS for 2 min. Photographs were taken with a dissecting microscope (SMZ 1500; Nikon, Tokyo, Japan) through an attached digital camera (DXM 1200; Nikon). The images corresponding to the wounded area were quantified using Photoshop CC 2014 software (Adobe, San Jose, CA, USA).

mouse cornea [3] = test: Mouse corneal epithelium removal inside 2 mm diameter central area; assay type: in vivo; details: topical eye drops, 3× daily for 12 days; 2020 (40)
Procedure: as §1

[4] = tested on: trigeminal ganglion (TG) gene expression; test: Trigeminal ganglion RNA sequencing after corneal injury and treatment; assay type: in vivo, mouse; details: RNA-seq, 12 days after corneal injury and topical treatment, vs vehicle
Procedure: Because corneal sensory nerves originate in TG neurons, we wanted to validate whether corneal injury could be sensed in the TG and t, in turn, would elicit a gene expression response. Thus, TG were harvested 12 days after injury and treatment with RvD6si or RvD6 or vehicle treatment used as control (FIG. 4) and then RNA-seq analysis was performed. […] The box plots depict two activated genes by RvD6si in this class: C9orf72 and Gpm6a (FIG. 6). We also detected specific genes related to neuropeptides and ion channel receptors in the cornea that are stimulated by the addition of PEDF+DHA (19, 21, 24) (FIG. 6D). The RNA-seq established that RvD6 or RvD6si reduced gene expression of two major neuropeptides, tachykinin precursor 1 (Tac1) that encodes Substance P (SP) and calcitonin-related polypeptide beta (Calcb). It is important to note that these neuropeptides, especially Calcb, are major pain-induced mediators in migraine and other primary headaches (30).
TG corresponding to the injury eye side (n=5) were harvested and kept in RNAlater solution (Thermo Fisher Scientific) until homogenized on ice using a Dounce homogenizer. Total mRNA was extracted using an RNeasy mini kit (Qiagen, Germantown, MD, USA) as described by the manufacturer. Purity and concentration of RNA were determined with a NanoDrop ND-1000 spectrophotometer (Thermo Fisher Scientific), and the samples were stored at −80° C. until used. RNA sequencing was performed using the adapted Smart-seq2 protocol (56). Briefly, one ng of total RNA was reverse transcribed with the Oligo-dT30VN and template-switching oligo (TSO) primers. The total cDNAs were amplified using ISPCR primer, and the library was made using the Nextera XT DNA library preparation kit (Illumina, San Diego, CA, USA). The libraries were pooled using the same molarity and sequenced using the NextSeq 500/550 High Output Kit v2 (75 cycles, Illumina). After demultiplexing, RNA-seq data were aligned to the GENCODE GRCm38 mouse primary genome assembly (Release M22, gencodegenes.org/mouse/) using the RSubread package v1.34.6 for R v3.6.1 (57). The outputted BAM files for sequencing data alignment were counted using featureCounts function (Subread v1.6.5 in Ubuntu LTS 16.4 operating system) (58). Next, the raw count data were subjected to differential gene expression analysis using DESeq2 package for R (59). The adjusted p-values were regarded as the false discover rate (FDR).

Structure (SMILES): CC/C=C\C[C@@H](O)/C=C/C=C\C/C=C\C/C=C\C=C\[C@H](O)CCC(=O)O (single isomer, unassigned) [RvD6si]
- total corneal nerve density, differences between RvD6si, RvD6, and PEDF+DHA (corneal nerves; 12 days after injury and treatment): no significant differences
- total corneal nerve density (PGP 9.5) (corneal nerves; 12 days after injury and treatment, % of the normal (uninjured) cornea): 62.6±4.2%
- density of SP-positive nerves (corneal nerves; 12 days after injury, compared to the vehicle-treated group): higher
- recovery of corneal sensitivity (mouse cornea [1]): more potently
- recovery of corneal sensitivity (mouse cornea [1]; listed as RvD6i): accelerated; also recorded: sooner
- corneal sensitivity (mouse cornea [1]; day 3 after injury and treatment): faster recovery; also recorded: significantly higher
- corneal sensitivity (mouse cornea [1]; day 6 after injury and treatment): faster recovery; also recorded: significantly higher
- corneal sensitivity (mouse cornea [1]; day 9 after injury and treatment): significantly higher
- corneal wound healing (wound closure) (mouse cornea [2]; 20 h after injury and topical treatment, compared to vehicle): greatest increase
- corneal wound healing (mouse cornea [2]): more potently
- corneal wound healing (mouse cornea [2]; listed as RvD6i): accelerated
- corneal wound healing, sensitivity and nerve regeneration (mouse cornea [3]): Increased corneal wound healing, sensitivity
- C9orf72 gene expression in TG [4]: activated; also recorded: strong activation
- Calcb gene expression in TG [4]: reduced; also recorded: decreased
- Gpm6a gene expression in TG [4]: activated; also recorded: strong activation
- Nrp1 gene expression in TG [4]: selectively enhanced; also recorded: selective increase
- Rictor gene expression in TG [4]: strong induction; also recorded: potently and selectively induces
- Tac1 gene expression in TG [4]: reduced; also recorded: decreased
- Trpm8 gene expression in TG [4]: selectively enhanced; also recorded: increased expression
- C9orf72 gene expression in TG ([4]; listed as RvD6i): induces
- Calcb gene expression in TG ([4]; listed as RvD6i): decreased; also recorded: down-regulated
- Gpm6a gene expression in TG ([4]; listed as RvD6i): induces
- Rictor gene expression in TG ([4]; listed as RvD6i): strong inducer; also recorded: up-regulated
- Tac1 gene expression in TG ([4]; listed as RvD6i): decreased; also recorded: down-regulated
- Trpm8 gene expression in TG ([4]; listed as RvD6i): increased; also recorded: up-regulated
